# Measured values as given in patent US8623877B2, “Substituted N-heteroaryl tetrahydro-isoquinoline derivatives, preparation and therapeutic use thereof” (Sanofi, priority 2010, dated 2014).
# Like-named read-outs stand apart in the source and are kept apart here.
# How the values were obtained:
# rhesus H3 [1] = target: T1, rhesus H3 (Macaca mulatta, UniProt Q865E1); experiment: Rhesus H3 [3H]-Methylhistamine radioligand binding assay (SPA, cell membranes); set-up: species or system rhesus monkey (Macacca Mulatta); details: [3H]-Methylhistamine 2 nM, Cheng-Prusoff
# T1 construct: 445 amino acid H3 receptor; expressed in transfected cells; host or cells: Flp-In T-REx 293 Cell Line (Invitrogen), pcDNA5/FRT/TO, induced with tetracycline
# Experimental: (§1) Rhesus H3 membranes were prepared from the Flp-In T-REx 293 Cell Line (Invitrogen) stably transfected with pcDNA5/FRT/TO (Invitrogen) containing the rhesus monkey (Macacca Mulatta) 445 amino acid H3 receptor. (Genbank #AY231164). Stably transfected cultures were amplified in tissue culture flasks by standard tissue culture methods and induced to express rhesus H3 by exposure to 500 ng/ml tetracycline (Cellgro) for 24 hours. After induction, cells were dissociated from flasks utilizing Cell Stripper (Cellgro). Cells were centrifuged (1 K×g, 5 min) and pellet frozen in an ethanol-dry ice bath to disrupt cell membranes. Frozen cell pellet was re-suspended in 5 mM HEPES (pH 7.4, Invitrogen) at 10 ml/1000 cm2 of harvested cells. The cell suspension was drawn through an 18 gauge needle (2-3×) followed by a 23 gauge needle (2-3×) to further disrupt cell membranes. The cell suspension was centrifuged (40K×g, 30 min). Cell membrane pellet was re-suspended in 5 mM HEPES (pH 7.4, Invitrogen) at a final protein concentration of 10 mg/ml. Rhesus H3 membranes were stored under liquid nitrogen prior to use in [3H]-Methylhistamine and GTPγS radioligand binding assays.
# (§2) Rhesus H3 radioligand binding assay was performed using rhesus H3 receptor membranes (prepared as described above), [3H]-Methylhistamine (Perkin Elmer) and WGA SPA beads (wheat germ agglutinin scintillation proximity assay) beads (Amersham). The assay was performed in 96-well Opti-Plates (Packard). Each reaction contained 50 μl rhesus H3 membranes (20-30 μg total protein), 50 μl WGA SPA beads (0.1 μg) and 50 μl of 83 Ci/mmol [^3H]-Methylhistamine (final concentration 2 nM) and 50 μl of tested compound. The compounds of this invention and/or vehicle were diluted with binding buffer from 10 mM DMSO stocks. Assay plates were sealed with TopSeal (Perkin Elmer) and mixed on shaker (25° C., 1 hour). Assay plates were read on TopCount scintillation counter (Packard). Results were analyzed by Hill transformation and Ki values were determined by Cheng-Prusoff equation. Similar procedure was employed to determine the binding data for rat.
# Rat H3 = Rat H3 (Rattus norvegicus, UniProt Q9QYN8); experiment: Rat H3 radioligand binding assay (similar procedure)
# Experimental: as §2
# rhesus H3 [2] = target: T1, rhesus H3; experiment: GTPγS radioligand binding assay, inhibition of rhesus H3 constitutive functional activity in cell membranes; assay type: biochemical, rhesus monkey (Macacca Mulatta); details: basal rhesus H3-mediated GTPγS binding
# Experimental: as §1
# [3] = rat H3, similar procedure to the rhesus binding assay, read-out: Rat H3 Binding ki
# T1 sequence (Q865E1 1-445): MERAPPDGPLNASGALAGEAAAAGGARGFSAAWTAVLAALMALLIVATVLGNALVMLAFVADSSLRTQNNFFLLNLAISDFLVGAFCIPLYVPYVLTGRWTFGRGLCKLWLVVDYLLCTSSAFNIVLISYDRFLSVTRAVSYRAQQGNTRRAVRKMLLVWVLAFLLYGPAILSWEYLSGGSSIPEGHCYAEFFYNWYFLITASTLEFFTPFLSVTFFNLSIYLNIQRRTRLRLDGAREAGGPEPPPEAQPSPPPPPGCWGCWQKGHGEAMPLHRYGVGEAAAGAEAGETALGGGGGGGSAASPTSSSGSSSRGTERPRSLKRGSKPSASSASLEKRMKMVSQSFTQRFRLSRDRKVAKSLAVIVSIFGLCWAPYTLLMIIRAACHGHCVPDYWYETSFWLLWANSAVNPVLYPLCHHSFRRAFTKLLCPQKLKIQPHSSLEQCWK
# Rat H3, sequence (Q9QYN8 whole entry): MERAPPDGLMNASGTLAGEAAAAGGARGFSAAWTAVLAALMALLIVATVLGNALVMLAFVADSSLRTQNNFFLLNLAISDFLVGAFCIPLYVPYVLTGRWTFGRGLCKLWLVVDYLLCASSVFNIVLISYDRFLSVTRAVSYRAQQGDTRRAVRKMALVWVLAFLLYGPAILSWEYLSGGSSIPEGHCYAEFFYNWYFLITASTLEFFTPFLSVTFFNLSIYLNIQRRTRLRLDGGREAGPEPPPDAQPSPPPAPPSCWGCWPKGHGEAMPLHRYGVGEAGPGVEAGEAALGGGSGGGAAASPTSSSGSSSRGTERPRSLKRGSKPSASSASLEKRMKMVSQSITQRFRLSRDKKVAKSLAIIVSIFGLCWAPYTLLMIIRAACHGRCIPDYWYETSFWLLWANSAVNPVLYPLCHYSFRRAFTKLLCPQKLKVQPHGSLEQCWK
Ki (rhesus H3 [1]),Ki (Rat H3; [3]),GTPγS-35 ASSAY % Inverse Agonism (rhesus H3 [2]),SMILES,Ki (Rat H3)
10 nM,0.27 nM,−8.4%,"CNC(=O)c1ccc(N2CCc3ccc(N4CC[C@H](N5CCC[C@@H]5C)C4)cc3CC2)nc1 [Example 20, N-Methyl-6-[7-((2S,3′S)-2-methyl-[1,3′]bipyrrolidinyl-1′-yl)-1,2,4,5-tetrahydro-benzo[d]azepin-3-yl]-nicotinamide]",
4.8 nM,22 nM,−13.8%,"C[C@H]1CCCN1[C@H]1CCN(c2ccc3c(c2)CCN(c2cccc(N4CCCC4)n2)C3)C1 [Example 15, 6-((2S,3′S)-2-Methyl-[1,3′]bipyrrolidinyl-1′-yl)-2-(6-pyrrolidin-1-yl-pyridin-2-yl)-1,2,3,4-tetrahydro-isoquinoline]",
26 nM,1.2 nM,−8.2%,"C[C@H]1CCCN1[C@H]1CCN(c2ccc3c(c2)CCN(c2cnc4ccccc4c2)CC3)C1 [Example 18, 7-((2S,3′S)-2-Methyl-[1,3′]bipyrrolidinyl-1′-yl)-3-quinolin-3-yl-2,3,4,5-tetrahydro-1H-benzo[d]azepine]",
0.24 nM,0.5 nM,−16.7%,"COc1cncc(N2CCc3cc(N4CC[C@H](N5CCC[C@@H]5C)C4)ccc3C2)c1 [Example 10, 2-(5-Methoxy-pyridin-3-yl)-6-((2S,3′S)-2-methyl-[1,3′]bipyrrolidinyl-1′-yl)-1,2,3,4-tetrahydro-isoquinoline]",
25 nM,0.93 nM,−8.9%,"C[C@H]1CCCN1[C@H]1CCN(c2ccc3c(c2)CCN(c2ccc(C(F)(F)F)cn2)CC3)C1 [Example 19, 7-((2S,3′S)-2-Methyl-[1,3′]bipyrrolidinyl-1′-yl)-3-(5-trifluoromethyl-pyridin-2-yl)-2,3,4,5-tetrahydro-1H-benzo[d]azepine]",
15 nM,50 nM,−20.9%,"Cc1cc(C(F)(F)F)cc(N2CCc3cc(N4CC[C@H](N5CCC[C@@H]5C)C4)ccc3C2)n1 [Example 11, 6-((2S,3′S)-2-Methyl-[1,3′]bipyrrolidinyl-1′-yl)-2-(6-methyl-4-trifluoromethyl-pyridin-2-yl)-1,2,3,4-tetrahydro-isoquinoline]",
35 nM,310 nM,−18.3%,"C[C@H]1CCCN1[C@H]1CCN(c2ccc3c(c2)CCN(c2ncc(C(F)(F)F)cc2Cl)C3)C1 [Example 14, 2-(3-Chloro-5-trifluoromethyl-pyridin-2-yl)-6-((2S,3′S)-2-methyl-[1,3′]bipyrrolidinyl-1′-yl)-1,2,3,4-tetrahydro-isoquinoline]",
180 nM,380 nM,−13.0%,"Cc1ccc(S(=O)(=O)N2CCc3cc(N4CCc5cc(N6CC[C@H](N7CCC[C@@H]7C)C6)ccc5C4)ccc3C2)cc1 [Example 9, 6-((2S,3′S)-2-Methyl-[1,3′]bipyrrolidinyl-1′-yl)-2′-(toluene-4-sulfonyl)-3,4,1′,2′,3′,4′-hexahydro-1H-[2,6′]biisoquinolinyl]",
4.6 nM,27 nM,−21.9%,"C[C@H]1CCCN1[C@H]1CCN(c2ccc3c(c2)CCN(c2ccc(Cl)cn2)C3)C1 [Example 16, 2-(5-Chloro-pyridin-2-yl)-6-((2S,3′S)-2-methyl-[1,3′]bipyrrolidinyl-1′-yl)-1,2,3,4-tetrahydro-isoquinoline]",
0.58 nM,1.7 nM,−27.3%,"Cc1ccnc(N2CCc3cc(N4CC[C@H](N5CCC[C@@H]5C)C4)ccc3C2)c1 [Example 13, 6-((2S,3′S)-2-Methyl-[1,3′]bipyrrolidinyl-1′-yl)-2-(4-methyl-pyridin-2-yl)-1,2,3,4-tetrahydro-isoquinoline]",
1.3 nM,6.1 nM,−23.3%,"C[C@H]1CCCN1[C@H]1CCN(c2ccc3c(c2)CCN(c2ccc(F)cn2)C3)C1 [Example 12, 2-(5-Fluoro-pyridin-2-yl)-6-((2S,3′S)-2-methyl-[1,3′]bipyrrolidinyl-1′-yl)-1,2,3,4-tetrahydro-isoquinoline]",

# Further lines, the compound ahead of its results:
SMILES,Ki (rhesus H3 [1]),Ki (Rat H3; [3]),GTPγS-35 ASSAY % Inverse Agonism (rhesus H3 [2]),Ki (Rat H3)
"C[C@H]1CCCN1[C@H]1CCN(c2ccc3c(c2)CCN(c2cccnc2Cl)C3)C1 [Example 3, 2-(2-Chloro-pyridin-3-yl)-6-((2S,3′S)-2-methyl-[1,3′]bipyrrolidinyl-1′-yl)-1,2,3,4-tetrahydro-isoquinoline]",2.2 nM,6.1 nM,−14.7%,
"C[C@H]1CCCN1[C@H]1CCN(c2ccc3c(c2)CCN(c2ccc(C(F)(F)F)cn2)C3)C1 [Example 2, 6-((2S,3′S)-2-Methyl-[1,3′]bipyrrolidinyl-1′-yl)-2-(5-trifluoromethyl-pyridin-2-yl)-1,2,3,4-tetrahydro-isoquinoline]",29 nM,56 nM,−37.4%,
"C[C@H]1CCCN1[C@H]1CCN(c2ccc3c(c2)CCN(c2cnc(Br)nc2)C3)C1 [Example 5, 2-(2-Bromo-pyrimidin-5-yl)-6-((2S,3′S)-2-methyl-[1,3′]bipyrrolidinyl-1′-yl)-1,2,3,4-tetrahydro-isoquinoline]",24 nM,92 nM,−36.4%,
"C[C@H]1CCCN1[C@H]1CCN(c2ccc3c(c2)CCN(c2cncnc2)C3)C1 [Example 6, 6-((2S,3′S)-2-Methyl-[1,3′]bipyrrolidinyl-1′-yl)-2-pyrimidin-5-yl-1,2,3,4-tetrahydro-isoquinoline]",0.98 nM,1.5 nM,−48.7%,
"Cc1cccc(N2CCc3cc(N4CC[C@H](N5CCC[C@@H]5C)C4)ccc3C2)n1 [Example 4, 6-((2S,3′S)-2-Methyl-[1,3′]bipyrrolidinyl-1′-yl)-2-(6-methyl-pyridin-2-yl)-1,2,3,4-tetrahydro-isoquinoline]",0.48 nM,0.4 nM,−46.7%,
"CNC(=O)c1ccc(N2CCc3cc(N4CC[C@H](N5CCC[C@@H]5C)C4)ccc3C2)nc1 [Example 1, N-Methyl-6-[6-((2S,3′S)-2-methyl-[1,3′]bipyrrolidinyl-1′-yl)-3,4-dihydro-1H-isoquinolin-2-yl]-nicotinamide]",0.39 nM,0.95 nM,,
"C[C@H]1CCCN1[C@H]1CCN(c2ccc3c(c2)CCNCC3)C1 [Example 17, 7-((2S,3′S)-2-Methyl-1,3′-bipyrrolidinyl-1′-yl)-2,3,4,5-tetrahydro-1H-3-benzazepine]",1.2 nM,,−14.7%,5.9 nM
"C[C@H]1CCCN1[C@H]1CCN(c2ccc3c(c2)CCN(c2cnc4ccccc4c2)C3)C1 [Example 7, 3-[6-((2S,3′S)-2-Methyl-[1,3′]bipyrrolidinyl-1′-yl)-3,4-dihydro-1H-isoquinolin-2-yl]-quinoline]",0.28 nM,26 nM,−32.5%,
"C[C@H]1CCCN1[C@H]1CCN(c2ccc3c(c2)CCN(c2nc4ccccc4o2)C3)C1 [Example 8, 2-Benzooxazol-2-yl-6-((2S,3′S)-2-methyl-[1,3′]bipyrrolidinyl-1′-yl)-1,2,3,4-tetrahydro-isoquinoline]",680 nM,1200 nM,−29.4%,
